# Literature values, collected in patent US20080146525A1 (priority 2006, published 2008).
# Columns and labels:
# [1] = administered orally
# [2] = animal models and humans
# [3] = tested on: extra-cellular acetylcholine and dopamine levels; details: versus compositions commonly used to treat Alzheimer's disease; rats
# [4] = healthy adolescents
# neurotransmitters = details: humans
structure (smiles),measurement,setting,value
CC(=C(CCOC(=O)C(C)C)SSC(CCOC(=O)C(C)C)=C(C)N(C=O)Cc1cnc(C)nc1N)N(C=O)Cc1cnc(C)nc1N (stereo in doubt) [Sulbutiamine],memory effect,rats,memory enhancing effects
C/C=C1\[C@H]2C=C(C)C[C@]1(N)c1ccc(=O)[nH]c1C2 [Huperzine-A],bioavailability,[1],good bioavailability
same,effect on memory deficits,[2],improves memory deficits
same,amount of nerve growth factor,nerve growth factor,increase the amount of nerve growth factor
same,ability to increase extra-cellular acetylcholine and dopamine levels,[3],greater ability to increase extra-cellular acetylcholine and dopamine levels
same,memory and learning,[4],improve memory and learning
N[C@@H](Cc1ccc(O)cc1)C(=O)O [Tyrosine],neurotransmitters after oral administration,neurotransmitters,increased of neurotransmitters
